{"source": "patent US7951549B2", "about": "“Methods for the identification of agents that inhibit mesenchymal-like tumor cells or their formation” (OSI Pharmaceuticals, Inc., priority 2008, dated 2011)", "assay_type_in_all_cases": "cell-based, human", "key": {"H358 cells [1]": {"test_system": "H358 cells", "assay": "Ligand-induced EMT in H358 cells with pharmacological inhibitors (Western blot markers, morphology)", "details": "inhibitor and ligand for 7 days; for EMT in OSM-induced models (markers and morphology): OSM alone or in combination", "description": "EMD Biosciences #444937), JAK inhibitor 1 (“JAKi”; EMD Biosciences #420099), and LY294002 (PI3K inhibitor (PI3Ki); EMD Biosciences #440202) were used in the concentrations indicated. Cells were treated with inhibitor 30 minutes prior to ligand stimulation. Medium, inhibitor and ligand were refreshed on experimental day 3 to 4. Cell lines were treated as indicated in the text and figure legends. Cell lysates were prepared in RIPA buffer (Sigma, #R0278) containing protease (Sigma #P8340) and phosphatase (Sigma, #P5726) inhibitors. Protein concentration was determined by micro-BCA assay (Pierce, #23227). Protein immunodetection was performed by electrophoretic transfer of SDS-PAGE separated proteins to nitrocellulose, incubation with antibody and chemiluminescent second step detection (PicoWest; Pierce, #34078). The antibodies used were: E-cadherin (sc21791), N-cadherin (#7939), ErbB3 (sc285), GAPDH (#25778) and Zeb1 (#25388), all from Santa Cruz Biotechnology; vimentin (BD550513) and fibronectin (BD610077; both from BD Biosciences); β-actin (Sigma, #A5441)."}, "H358 cells [2]": {"test_system": "H358 cells", "assay": "TGFβ-induced EMT of H358 cells in 3D matrigel culture, with and without inhibitor", "details": "10 μM SB431542, ligand TGFβ", "description": "3-Dimensional matrigel culture: Tissue culture wells were coated with a layer of matrigel of 1 mm depth or greater. H358 cells were plated on top of this in 2% matrigel with seeding density of 2,500-5000 cells/cm^2. Once the cell/matrigel layer had solidified, media was added and cultures were allowed to incubate overnight at 37° C. in a CO2 incubator before treatment of cells with ligand with and without addition of 10 μM SB431542 (Sigma-Aldrich, St. Louis, Mo.; product #S4317). Culture media, ligand with and without addition of 10 μM SB431542 was replenished every 3-4 days during the duration of the experiment.\nCells were plated on coverslips on experimental day 0, stimulated with ligand on day 1 and refreshed with medium and ligand on day 3-4. On day 7, cells were fixed at room temperature for 10 minutes in 4% paraformaldehyde (EMS #15701)/PBS (Gibco #14190). Cells were blocked in 3% BSA/PBS and incubated with primary antibody (E-cadherin, Santa Cruz #sc21791 and Vimentin, Chemicon #AB5733) diluted in blocking buffer for two hours at room temperature. Cells were washed and incubated in secondary antibody (Invitrogen #A11029 and Chemicon #AP194R) followed by nuclear counterstain TO-PRO3 (Invitrogen #T3605). Coverslips were mounted on slides with Pro-Long Gold anti-fade reagent (Invitrogen P36934). […]"}, "H358 cells [3]": {"test_system": "H358 cells", "assay": "Induction of EMT in H358 cells by growth factors and cytokines (immunoblot of EMT biomarkers)", "details": "for induction of EMT in H358 cells: single ligand, 7 days", "description": "The human line H358 was cultured in the appropriate ATCC recommended supplemented media. Growth factor and cytokine induced EMT was monitored over a 7-14 day period. Growth factors and cytokines were obtained from commercial sources and included TGFβ 10 ng/ml, Endothelin 100 nM, IL-4 5 ng/ml, IL-6 5 ng/ml, IL-8 5 ng/ml, VEGF 10 ng/ml, Stromal derived factor, 100 ng/ml, Epidermal derived factor 10 ng/ml, MMP2, 100 ng/ml, MMP7, 100 ng/ml, MMP9, 100 ng/ml, Collagen-I, 5 μg/cm2, Collagen-IV, 5 μg/cm2, Fibronectin, 1 μg/cm2, Laminin-I, 1 μg/cm2, Vitronectin, 0.1 μg/cm2, Polylysine, 100 mg/mL, HGF, 100 ng/mL, MSP, 100 ng/ml, IGF-1, 50 ng/mL, CSF-1, 100 ng/mL, ET1, 100 nM, SDF-1alpha, 100 ng/ml PGE2, 500 nM, LPA, 10 μM, S1P, 1 μM, TGFbeta1, 2.5 ng/mL, TNFalpha, 25 ng/mL, IL1beta, 2.5 ng/mL, IL6, 2 ng/mL, IL8, 0.5 ng/mL, WNT-1, 5 ng/mL, CTGF, 20 ng/ml, Trance, 50 ng/ml, FGF1, 10 ng/ml, FGF2, 10 ng/ml, BMP4, 100 ng/ml, BMP7, 100 ng/ml, IGF2, 100 ng/ml, Oncostatin M, 100 ng/ml, NRG1, 50 ng/ml, PDGF-AA, 50 ng/ml, PDGF-BB, 30 ng/ml, WISP1, 20 ng/ml, Fulvestrant, 1 μM, LIF, 20 ng/ml, IFN g, 50 ng/ml, HMG-B1, 50 ng/ml, M-CSF, 50 ng/ml, PTHrP, 50 ng/ml, MCP1, 50 ng/ml, IL-1a, 10 ng/ml, IL-33, 50 ng/ml, IL-31, 50 ng/ml, GM-CSF, 25 ng/ml, Angiopoeitin 2, 400 ng/ml, PAR1, 100 μM, PAR2, 100 μM, PAR4, 100 μM, Wnt5a, 200 ng/ml, G-CSF, 50 ng/ml, Amphiregulin, 100 ng/ml, CNTF, 25 ng/mL, Pleiotrophin, 25 ng/ml, Prolactin, 100 ng/ml, TRAIL, 100 ng/ml.\nCell lines were treated as indicated in the text and figure legends. Cell lysates were prepared in RIPA buffer (Sigma, #R0278) containing protease (Sigma #P8340) and phosphatase (Sigma, #P5726) inhibitors. Protein concentration was determined by micro-BCA assay (Pierce, #23227). Protein immunodetection was performed by electrophoretic transfer of SDS-PAGE separated proteins to nitrocellulose, incubation with antibody and chemiluminescent second step detection (PicoWest; Pierce, #34078). The antibodies used were: E-cadherin (sc21791), N-cadherin (#7939), ErbB3 (sc285), GAPDH (#25778) and Zeb1 (#25388), all from Santa Cruz Biotechnology; vimentin (BD550513) and fibronectin (BD610077; both from BD Biosciences); β-actin (Sigma, #A5441)."}, "H358 cells [4]": {"test_system": "H358 cells", "assay": "Immunofluorescence and confocal imaging of E-cadherin and vimentin in ligand-treated H358 cells", "details": "cells treated for 7 days", "description": "Cells were plated on coverslips on experimental day 0, stimulated with ligand on day 1 and refreshed with medium and ligand on day 3-4. On day 7, cells were fixed at room temperature for 10 minutes in 4% paraformaldehyde (EMS #15701)/PBS (Gibco #14190). Cells were blocked in 3% BSA/PBS and incubated with primary antibody (E-cadherin, Santa Cruz #sc21791 and Vimentin, Chemicon #AB5733) diluted in blocking buffer for two hours at room temperature. Cells were washed and incubated in secondary antibody (Invitrogen #A11029 and Chemicon #AP194R) followed by nuclear counterstain TO-PRO3 (Invitrogen #T3605). Coverslips were mounted on slides with Pro-Long Gold anti-fade reagent (Invitrogen P36934). Images were captured on a Leica DMRXE microcope with SP2 scanner using Leica Confocal Software."}}, "note": "Entries after “also recorded” stand apart in the source; their conditions may differ.", "data": [{"compound": "CC(C)(C)c1nc2c3cc[nH]c(=O)c3c3cc(F)ccc3c2[nH]1", "note": "[JAK inhibitor]", "values": [{"measurement": "EMT in OSM-induced models (markers and morphology)", "setting": "H358 cells [1]", "result": "blocked"}, {"measurement": "EMT in OSM-induced models (markers and morphology)", "setting": "H358 cells [1]; listed as JAKi", "result": "blocks"}, {"measurement": "downregulation of E-cadherin induced by OSM, TGFβ, HGF+OSM and TGFβ+OSM", "setting": "H358 cells [1]; Western blot", "result": "blocked"}, {"measurement": "upregulation of vimentin by OSM, HGF+OSM and TGFβ+OSM", "setting": "H358 cells [1]; Western blot", "result": "attenuated"}]}, {"compound": "NC(=O)c1ccc(-c2nc(-c3ccc4c(c3)OCO4)c(-c3ccccn3)[nH]2)cc1", "note": "[SB431542]", "values": [{"measurement": "epithelial to mesenchymal transition induced by TGFβ (vimentin, E-cadherin)", "setting": "H358 cells [2]", "result": "abrogated; also recorded: inhibited"}]}, {"compound": "EGF: epidermal growth factor, protein ligand", "values": [{"measurement": "induction of EMT in H358 cells", "setting": "H358 cells [3]", "result": "to a lesser extent"}]}, {"compound": "HGF: hepatocyte growth factor (Peprotech #100-39)", "values": [{"measurement": "E-cadherin repression or vimentin induction as single agents", "setting": "H358 cells [3]; seven day treatment of H358", "result": "neither HGF or OSM as single agents produced significant"}, {"measurement": "extent of EMT at the single cell level (E-cadherin and vimentin expression and localization)", "setting": "H358 cells [4]", "result": "partial EMT"}]}, {"compound": "TGFβ", "values": [{"measurement": "E-cadherin expression", "setting": "H358 cells [3]; seven day treatment of H358", "result": "marked decrease"}, {"measurement": "vimentin expression", "setting": "H358 cells [3]; seven day treatment of H358", "result": "robust increase"}, {"measurement": "E-cadherin expression", "setting": "H358 cells [3]; seven day treatment of H358, listed as TGF-beta", "result": "very substantial"}, {"measurement": "induction of EMT in H358 cells", "setting": "H358 cells [3]", "result": "most complete EMT"}, {"measurement": "extent of EMT at the single cell level (E-cadherin and vimentin expression and localization)", "setting": "H358 cells [4]", "result": "more complete EMT"}]}, {"compound": "TNFα", "values": [{"measurement": "induction of EMT in H358 cells", "setting": "H358 cells [3]", "result": "able to induce EMT"}]}]}
